Here are results for one molecule from paper PMC10249021 (Journal of the American Chemical Society, 2020).

This series is described as follows: Thermal stability of oxytocin and analogues at 50 °C by LCMS analysis. Format: physicochemical. Particulars: thermal degradation in water at 50 °C; read-out LCMS analysis.

For `CC[C@H](C)[C@@H]1NC(=O)[C@H](Cc2ccc(O)cc2)NC(=O)[C@@H](N)CSSC[C@@H](C(=O)N2CCC[C@H]2C(=O)N[C@@H](CC(C)C)C(=O)NCC(N)=O)NC(=O)[C@H](CC(N)=O)NC(=O)[C@H](CCC(N)=O)NC1=O` [oxytocin], the “half-life (thermal stability)” value is 93.6 h.
